The term IC50 denotes the concentration that gives 50% inhibition.

The nature of test [1]: Antiproliferative activity against human HCT8/VCT cells assessed as growth inhibition after 48 hrs by sulforhodamine B assay. It counts as functional, cell-based. A general note: The SRB assay estimates cell density from bound dye.
Test [2] in a line: Antiproliferative activity against human A549/CDDP cells assessed as growth inhibition after 48 hrs by sulforhodamine B assay. In kind it is functional, cell-based. The note with it: A549, 48 h.
The next test deals with MCF7. In words: Antiproliferative activity against human MCF7 cells assessed as growth inhibition after 48 hrs by sulforhodamine B assay. In kind it is functional, cell-based. The note with it: MCF7, 48 h.
The test system of another test is SW480. Kind of test: Antiproliferative activity against human SW480 cells assessed as growth inhibition after 48 hrs by sulforhodamine B assay. In kind it is functional, cell-based. The following applies: SW480, 48 h.
Test [3] is described as follows: Antiproliferative activity against human MCF7/DX cells assessed as growth inhibition after 48 hrs by sulforhodamine B assay. In kind it is functional, cell-based.
The nature of test [4]: Antiproliferative activity against mouse NIH/3T3 cells assessed as growth inhibition after 48 hrs by sulforhodamine B assay. It counts as cell-based. The following applies: NIH3T3, 48 h.
Test [5] is described as follows: Antiproliferative activity against human A2780/TAX cells assessed as growth inhibition after 48 hrs by sulforhodamine B assay. In kind it is functional, cell-based.
The next test relates to HepG2. In words: Antiproliferative activity against human HepG2 cells assessed as growth inhibition after 48 hrs by sulforhodamine B assay. In kind it is functional, cell-based. The following applies: HepG2, 48 h.
A short description of test [6]: Antiproliferative activity against human HCT8 cells assessed as growth inhibition after 48 hrs by sulforhodamine B assay. In kind it is functional, cell-based. The note with it: HCT-8, 48 h.
In another test the test system is A2780. In words: Antiproliferative activity against human A2780 cells assessed as growth inhibition after 48 hrs by sulforhodamine B assay. In kind it is functional, cell-based. The following applies: A2780, 48 h.
Another test relates to A549. In words: Antiproliferative activity against human A549 cells assessed as growth inhibition after 48 hrs by sulforhodamine B assay. It counts as functional, cell-based. The note with it: A549, 48 h.

Some results are limits rather than exact numbers.

For `C=C1[C@@H](O)C[C@H](OC(C)=O)[C@@]2(COC(=O)c3ccccc3)[C@@H](OC(C)=O)[C@H](OC(C)=O)[C@@]3(O)[C@]4(C)OC[C@]3(C)C(CC4=O)[C@@H](OC(C)=O)[C@H]12` [TAXININE M], the IC50 in test [1] was over 25 µM; in test [2], over 25 µM; with MCF7, over 25 µM; in the test on SW480, 16 µM; in [3], over 25 µM; in [4], over 25 µM. Further, the half-maximal inhibitory concentration (IC50) in test [5] is over 25 µM; in the test with HepG2, over 25 µM; in test [6] it was over 25 µM; in the test with A2780, over 25 µM; with A549, 12 µM.
